Data: patent US9475824B2, “Fused pyrimidines as inhibitors of p97 complex” (Cleave Biosciences, Inc., priority 2012, dated 2016)

Molecular target: p97 (Homo sapiens, UniProt P55072)
Assay: P97 ATPase biochemical assay (ADP Glo)
Settings: 20 nM p97, 20 μM ATP, 37° C. 15 minutes
Procedure: The ATPase assay is performed according the following protocol: Purified enzyme (20 nM p97), substrate (20 μM ATP) and a dose titration of compounds are mixed in buffer (50 mM TRIS pH 7.5, 20 mM MgCl2, 0.02% TX-100, 1 mM DTT, 0.2% (v/v) glycerol) and incubated at 37° C. for 15 minutes. The reaction is terminated and the level of product generated is measured using the ADP Glo Assay Kit (Promega, Madison Wis.). Plotting product generated versus compound concentration and using a four-parameter fit model generates an IC50 value for each compounds.
The p97 assay is an initial screening assay used to determine inhibitory activity of the fused pyrimidine compounds of the invention against the p97 complex. As discussed above, inhibition of activity of the p97 proteosome complex can enable apoptosis and cause elimination of neoplastic cells (cancer cells). The method follows that of Christianson in Nat.
Assay Buffer is a mixture of 50 mM TRIS pH 7.5, 20 mM MgCl2, 0.02% TX-100, 1 mM DTT and 0.2% (v/v) Glycerol. […] The identification kit is an ADP glo kit (Promega): stop buffer, detection reagent.
0.5 μL compound serial diluted in DMSO (Final Conc. 10%)
2 μL ATP (Final Conc.=20 uM, diluted in assay buffer)
2.5 μL p97 (Final Conc.=20 nM, diluted in assay buffer)
Incubate at 37 degC for 15 min.
Add 5 μL of stop buffer, incubate at RT for 40 min.
Add 10 μL of detection reagent, incubate at RT for 30 min.
Read luminescence on Envision plate reader.
Plot normalized luminescence data against log-transformed concentration values and fit to a sigmoidal curve to determine IC50 values (done in Collaborative Drug Discovery software).

Chain of p97 (P55072 whole entry): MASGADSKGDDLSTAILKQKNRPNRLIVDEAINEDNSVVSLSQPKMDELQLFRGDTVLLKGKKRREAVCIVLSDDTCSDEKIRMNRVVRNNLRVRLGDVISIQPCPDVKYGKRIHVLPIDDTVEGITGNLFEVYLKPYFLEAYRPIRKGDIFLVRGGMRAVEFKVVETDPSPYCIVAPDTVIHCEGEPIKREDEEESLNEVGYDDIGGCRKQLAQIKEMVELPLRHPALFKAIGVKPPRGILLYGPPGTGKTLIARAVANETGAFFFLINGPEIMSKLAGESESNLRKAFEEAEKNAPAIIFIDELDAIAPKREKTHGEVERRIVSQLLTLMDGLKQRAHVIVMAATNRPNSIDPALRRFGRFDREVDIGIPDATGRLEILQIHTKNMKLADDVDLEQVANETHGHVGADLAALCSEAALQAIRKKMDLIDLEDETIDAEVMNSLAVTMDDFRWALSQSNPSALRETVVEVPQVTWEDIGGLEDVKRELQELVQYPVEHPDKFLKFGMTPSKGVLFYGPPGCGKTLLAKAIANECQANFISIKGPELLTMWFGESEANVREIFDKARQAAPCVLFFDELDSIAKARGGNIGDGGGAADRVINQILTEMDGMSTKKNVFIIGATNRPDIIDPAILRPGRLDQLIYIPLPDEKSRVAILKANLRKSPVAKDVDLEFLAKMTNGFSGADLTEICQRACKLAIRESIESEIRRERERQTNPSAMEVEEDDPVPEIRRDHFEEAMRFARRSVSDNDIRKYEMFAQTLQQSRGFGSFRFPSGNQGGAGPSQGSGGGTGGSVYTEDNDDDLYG

Row | SMILES | IC50 [nM]
1 | COc1cccc2c(NCc3ccccc3)nc(-n3c(OC)nc4ccccc43)nc12 [compound 1, N-benzyl-8-methoxy-2-(2-methoxy-1H-1,3-benzodiazol-1-yl)quinazolin-4-amine] | < 100
2 | Cc1cc2ccccc2n1-c1nc(NCc2ccccc2)c2cccc(CN)c2n1 [compound 2, 8-(aminomethyl)-N-benzyl-2-(2-methyl-1H-indol-1-yl)quinazolin-4-amine] | < 1000
3 | COc1nc2ccccc2n1-c1nc(NCc2ccccc2)c2ncsc2n1 [compound 4, N-benzyl-5-(2-methoxy-1H-1,3-benzodiazol-1-yl)-[1,3]thiazolo[5,4-d]pyrimidin-7-amine] | < 100
4 | COc1cccc2c(NCc3ccccc3)nc(-n3c(C)cc4ccccc43)nc12 [compound 8, N-benzyl-8-methoxy-2-(2-methyl-1H-indol-1-yl)quinazolin-4-amine] | < 100
5 | Cc1cc2ccccc2n1-c1nc2c(c(NCc3ccccc3)n1)CNCC2 [compound 10, N-benzyl-2-(2-methyl-1H-indol-1-yl)-5H,6H,7H,8H-pyrido[4,3-d]pyrimidin-4-amine] | < 300
6 | Cc1cc2ccccc2n1-c1nc2c(c(NCc3ccccc3)n1)CCNC2 [compound 11, N-benzyl-2-(2-methyl-1H-indol-1-yl)-5H,6H,7H,8H-pyrido[3,4-d]pyrimidin-4-amine] | < 300
7 | COc1cccc2c(NCc3ccccc3)nc(-n3c(CN)cc4ccccc43)nc12 [compound 15, 2-[2-(aminomethyl)-1H-indol-1-yl]-N-benzyl-8-methoxyquinazolin-4-amine] | < 100
8 | COc1cccc2c(NCc3ccccc3)nc(-c3c(C)oc4ccccc34)nc12 [compound 16, N-benzyl-8-methoxy-2-(2-methyl-1-benzofuran-3-yl)quinazolin-4-amine] | < 1000
9 | Cc1cc2ccccc2n1-c1nc(NCc2ccccc2)c2cccc(C(N)=O)c2n1 [compound 17, 4-(benzylamino)-2-(2-methyl-1H-indol-1-yl)quinazoline-8-carboxamide] | < 300
10 | Cc1cc2ccccc2n1-c1nc2c(c(NCc3ccccc3)n1)COC2 [compound 18, N-benzyl-2-(2-methyl-1H-indol-1-yl)-5H,7H-furo[3,4-d]pyrimidin-4-amine] | < 300
11 | Cc1cc2ccccc2n1-c1nc(NCc2ccccc2)c2cccc(C#N)c2n1 [compound 19, 4-(benzylamino)-2-(2-methyl-1H-indol-1-yl)quinazoline-8-carbonitrile] | < 1000
12 | CC(=O)N1CCc2c(nc(-n3c(C)cc4ccccc43)nc2NCc2ccccc2)C1 [compound 20, 1-[4-(benzylamino)-2-(2-methyl-1H-indol-1-yl)-5H,6H,7H,8H-pyrido[3,4-d]pyrimidin-7-yl]ethan-1-one] | < 100
13 | CC(N)c1cc2ccccc2n1-c1nc2c(c(NCc3ccccc3)n1)CCCC2 (stereo not drawn) [compound 22, 2-[2-(1-aminoethyl)-1H-indol-1-yl]-N-benzyl-5,6,7,8-tetrahydroquinazolin-4-amine] | < 1000
14 | COCCOc1cccc2c(NCc3ccccc3)nc(-n3c(CN)cc4ccccc43)nc12 [compound 23] | < 300
15 | Cc1cc2c(F)cccc2n1-c1nc2c(c(NCc3ccccc3)n1)CNCC2 [compound 41, N-benzyl-2-(4-fluoro-2-methyl-1H-indol-1-yl)-5H,6H,7H,8H-pyrido[4,3-d]pyrimidin-4-amine] | < 300
16 | COc1cccc2c1cc(C)n2-c1nc2c(c(NCc3ccccc3)n1)CNCC2 [compound 43] | < 1000
17 | CCN1CCc2nc(-n3c(C)cc4ccccc43)nc(NCc3ccccc3)c2C1 [compound 63, N-benzyl-6-ethyl-2-(2-methyl-1H-indol-1-yl)-5H,6H,7H,8H-pyrido[4,3-d]pyrimidin-4-amine] | < 1000
18 | CCCN1CCc2nc(-n3c(C)cc4ccccc43)nc(NCc3ccccc3)c2C1 [compound 65, N-benzyl-2-(2-methyl-1H-indol-1-yl)-6-propyl-5H,6H,7H,8H-pyrido[4,3-d]pyrimidin-4-amine] | < 1000

Row | SMILES | IC50 [nM]
19 | Cc1nc2c(C(N)=O)cccc2n1-c1nc2c(c(NCc3ccccc3)n1)CNCC2 [compound 83, 1-[4-(benzylamino)-5H,6H,7H,8H-pyrido[4,3-d]pyrimidin-2-yl]-2-methyl-1H-1,3-benzodiazole-4-carboxamide] | < 1000
20 | NCc1cc2c(C(N)=O)cccc2n1-c1nc2c(c(NCc3ccccc3)n1)COCC2 [compound 86, 2-(aminomethyl)-1-[4-(benzylamino)-5H,7H,8H-pyrano[4,3-d]pyrimidin-2-yl]-1H-indole-4-carboxamide] | < 100
21 | N#Cc1cccc2c1nc(CN)n2-c1nc2c(c(NCc3ccccc3)n1)CCCC2 [compound 87, 2-(aminomethyl)-1-[4-(benzylamino)-5,6,7,8-tetrahydroquinazolin-2-yl]-1H-1,3-benzodiazole-4-carbonitrile] | < 1000
22 | COCCOc1cccc2c(NCc3ccccc3)nc(-n3c(CN)nc4c(C(N)=O)cccc43)nc12 [compound 88, 2-(aminomethyl)-1-[4-(benzylamino)-8-(2-methoxyethoxy)quinazolin-2-yl]-1H-1,3-benzodiazole-4-carboxamide] | < 1000
23 | Oc1nc2ccccc2n1-c1nc2c(c(NCc3ccccc3)n1)CCCC2 [compound 89, 1-[4-(benzylamino)-5,6,7,8-tetrahydroquinazolin-2-yl]-1H-1,3-benzodiazol-2-ol] | < 1000
24 | COc1cc2c(C(N)=O)cccc2n1-c1nc2c(c(NCc3ccccc3)n1)CNCC2 [compound 92, 1-[4-(benzylamino)-5H,6H,7H,8H-pyrido[4,3-d]pyrimidin-2-yl]-2-methoxy-1H-indole-4-carboxamide] | < 1000
25 | CN(C)Cc1cc2c(C(N)=O)cccc2n1-c1nc2c(c(NCc3ccccc3)n1)COCC2 [compound 95, 1-[4-(benzylamino)-5H,7H,8H-pyrano[4,3-d]pyrimidin-2-yl]-2-[(dimethylamino)methyl]-1H-indole-4-carboxamide] | < 1000
26 | Cc1cc2c(C(=O)NC(C)C)cccc2n1-c1nc2c(c(NCc3ccccc3)n1)COCC2 [compound 99, 1-[4-(benzylamino)-5H,7H,8H-pyrano[4,3-d]pyrimidin-2-yl]-2-methyl-N-(propan-2-yl)-1H-indole-4-carboxamide] | < 1000
27 | Cc1cc2c(C(=O)NCCN(C)C)cccc2n1-c1nc2c(c(NCc3ccccc3)n1)COCC2 [compound 102, 1-[4-(benzylamino)-5H,7H,8H-pyrano[4,3-d]pyrimidin-2-yl]-N-[2-(dimethylamino)ethyl]-2-methyl-1H-indole-4-carboxamide] | < 1000
28 | COc1nc2c(C(=O)O)cccc2n1-c1nc2c(c(NCc3ccccc3)n1)CCCC2 [compound 116, 1-[4-(benzylamino)-5,6,7,8-tetrahydroquinazolin-2-yl]-2-methoxy-1H-1,3-benzodiazole-4-carboxylic acid] | < 30
29 | Cc1cc2c(C(=O)O)cccc2n1-c1nc2c(c(NCc3ccccc3)n1)CNCC2 [compound 117, 1-[4-(benzylamino)-5H,6H,7H,8H-pyrido[4,3-d]pyrimidin-2-yl]-2-methyl-1H-indole-4-carboxylic acid] | < 100
30 | Cc1cc2c(C(=N)N)cccc2n1-c1nc2c(c(NCc3ccccc3)n1)COCC2 [compound 119] | < 1000
31 | Cc1cc2c(-c3nnn[nH]3)cccc2n1-c1nc2c(c(NCc3ccccc3)n1)COCC2 [compound 120, N-benzyl-2-[2-methyl-4-(1H-1,2,3,4-tetrazol-5-yl)-1H-indol-1-yl]-5H,7H,8H-pyrano[4,3-d]pyrimidin-4-amine] | < 30
32 | Cc1cc2c(-c3nnn[nH]3)cccc2n1-c1nc2c(c(NCc3ccccc3)n1)CCCC2 [compound 121, N-benzyl-2-[2-methyl-4-(1H-1,2,3,4-tetrazol-5-yl)-1H-indol-1-yl]-5,6,7,8-tetrahydroquinazolin-4-amine] | < 30
33 | NC(=O)NCc1cc2c(C(N)=O)cccc2n1-c1nc2c(c(NCc3ccccc3)n1)CCCC2 [compound 127, 1-[4-(benzylamino)-5,6,7,8-tetrahydroquinazolin-2-yl]-2-[(carbamoylamino)methyl]-1H-indole-4-carboxamide] | < 100
34 | CC(C)c1cc2c(C(N)=O)cccc2n1-c1nc2c(c(NCc3ccccc3)n1)COCC2 [compound 129, 1-[4-(benzylamino)-5H,7H,8H-pyrano[4,3-d]pyrimidin-2-yl]-2-(propan-2-yl)-1H-indole-4-carboxamide] | < 1000
35 | NC(=O)c1cccc2c1cc(C1CC1)n2-c1nc2c(c(NCc3ccccc3)n1)COCC2 [compound 131, 1-[4-(benzylamino)-5H,7H,8H-pyrano[4,3-d]pyrimidin-2-yl]-2-cyclopropyl-1H-indole-4-carboxamide] | < 30
36 | Cc1cc2c(C(=O)N(C)C)cccc2n1-c1nc2c(c(NCc3ccccc3)n1)CCCC2 [compound 133, 1-(4-(benzylamino)-5,6,7,8-tetrahydroquinazolin-2-yl)-N,N,2-trimethyl-1H-indole-4-carboxamide] | < 1000
